According to US20150086530A1, “DOSING REGIMENS FOR THE TREATMENT OF POMPE DISEASE” (Amicus Therapeutics, Inc., priority 2012, published 2015):
Where “and” joins values, the source holds several entries; their conditions need not be identical. Identical values can stand only once. Like-named read-outs stand apart in the source and are kept apart here.

Test: Plasma AT2220 (1-deoxynojirimycin hydrochloride) pharmacokinetics by LC-MS/MS in Pompe patients
Type: in vivo, human
Conditions: for Tmax / half-life / AUC(0-t) / AUC(0-inf) / Cmax: human, plasma, oral; for AUC(0-t): read-out: Plasma AT2220 AUC0-T; for AUC(0-inf): read-out: Plasma AT2220 AUC0-∞; for Cmax: read-out: Plasma AT2220 Cmax
Procedure: Blood samples for pharmacokinetic analysis will be collected before dosing 1-deoxynojirimycin hydrochloride and at 1 hour after administration of 1-deoxynojirimycin hydrochloride (i.e., immediately before initiation of the alglucosidase alfa infusion) and over the 24-hour period after initiation of the alglucosidase alfa infusion. Plasma and WBC GAA enzyme activity, plasma 1-deoxynojirimycin hydrochloride concentrations and plasma anti-rhGAA antibody titer will be determined from the collected blood samples at the times summarized in Table 2. A 12-lead ECG will be performed at the end of the alglucosidase alfa infusion, immediately after collection of the post-infusion blood sample.
Concentrations of 1-deoxynojirimycin hydrochloride in blood samples will be measured in plasma using a validated LC-MS/MS assay. GAA activity in plasma will be determined by a validated assay measuring enzyme activity using 4-MUG, with and without Con A. GAA protein levels will be measured by Western blotting using anti-human GAA antibody.
Non-compartmental pharmacokinetic parameters of AUC0-t, AUCinfinity, Cmax, tmax, kel and half-life will be calculated from plasma 1-deoxynojirimycin hydrochloride concentrations and plasma rhGAA enzyme levels. Pharmacokinetic parameters will be summarized by treatment using descriptive statistics. The AUC0-t, AUCinfinity ratios for GAA enzyme activity alone or after administration with 1-deoxynojirimycin hydrochloride will be calculated. Pharmacokinetic and pharmacodynamic data for those subjects receiving Myozyme® and Lumizyme® will be analyzed separately.

[1] = Cohort 3, 250 mg AT2220, Max, N=6
[2] = Cohort 3, 250 mg AT2220, Min, N=6
[3] = Cohort 3, 250 mg AT2220, individual subjects
[4] = 50 mg, 50 mg AT2220 (N = 4), Cohort 1, Geometric mean (CV %)
[5] = 100 mg, 100 mg AT2220 (N = 6), Cohort 2, Geometric mean (CV %)
[6] = 250 mg, 250 mg AT2220 (N = 6), Cohort 3, Geometric mean (CV %)
[7] = 250 mg, Cohort 3, 250 mg AT2220, Geometric Mean, N=6
[8] = 250 mg, Cohort 3, 250 mg AT2220, Mean, N=6

In the case of `OC[C@H]1NC[C@H](O)[C@@H](O)[C@@H]1O` [AT2220, (2R,3R,4R,5S)-2-hydroxymethyl-piperidine-3,4,5-triol], the “linearity of plasma pharmacokinetics” value (50 mg and 100 mg doses) is reported as “approximately linear”, the “linearity of plasma pharmacokinetics” value (50 mg and 100 mg doses, listed as 1-DNJ-HCl) is reported as “approximately linear PK” and the “increase in Cmax and AUC with dose” value (50 mg to 100 mg) is reported as roughly 2 fold. The “Plasma AT2220 AUC0-∞ Ratio” value (100 mg AT2220 (N = 6) relative to 50 mg) was 1.9, the “AUC0-∞ Ratio, plasma AT2220” value (100 mg vs 50 mg dose) was 1.9 and the “Plasma AT2220 AUC0-∞ Ratio” value (250 mg AT2220 (N = 6) relative to 50 mg) was 3.2. For the same compound, the “Plasma AT2220 AUC0-T” value [1] was 29670 ng·h/mL, the “Plasma AT2220 AUC0-∞” value [1] was 29916 ng·h/mL and the “Plasma AT2220 Cmax” value [1] was 4750 ng/mL. The “Plasma AT2220 T½” value [1] was 4.6 h, the “Plasma AT2220 AUC0-T” value [2] was 18321 ng·h/mL and the “Plasma AT2220 AUC0-∞” value [2] was 18711 ng·h/mL. For the same compound, the “Plasma AT2220 Cmax” value [2] was 2090 ng/mL, the “Plasma AT2220 Tmax” value [2] was 2.0 h and the “Plasma AT2220 T½” value [2] was 3.0 h. The “Plasma AT2220 AUC0-T” value [3] was 19344 ng·h/mL and 29670 ng·h/mL and 22230 ng·h/mL and 18321 ng·h/mL and 24278 ng·h/mL, the “Plasma AT2220 AUC0-∞” value [3] was 19534 ng·h/mL and 29916 ng·h/mL and 22345 ng·h/mL and 18711 ng·h/mL and 24558 ng·h/mL and the “Plasma AT2220 Cmax” value [3] was 2090 ng/mL and 2740 ng/mL and 4750 ng/mL and 3620 ng/mL and 2350 ng/mL and 4220 ng/mL. For the same compound, the “Plasma AT2220 Tmax” value [3] was 2.0 h, the Tmax (both sexes, 50 mg and 100 mg doses, read-out: rate of absorption (Tmax)) was 2 to 3 h and the “increase in mean AUC, plasma AT2220” value (from 50 mg to 100 mg) was 1.9 fold. The “increase in mean Cmax, plasma AT2220” value (from 50 mg to 100 mg) was 1.8 fold, the half-life (50 mg, 50 mg AT2220 (N = 4), Cohort 1, Arithmetic mean (SD), read-out: Plasma AT2220 t½ (converted)) was 3.1 h and the AUC(0-t) [4] was 6970 ng·h/mL. For the same compound, the AUC(0-inf) [4] was 7010 ng·h/mL, the Cmax [4] was 1040 ng/mL and the Tmax (50 mg, 50 mg AT2220 (N = 4), Cohort 1, Median (range), read-out: Plasma AT2220 Tmax) was 2 h. It also gave a half-life (100 mg, 100 mg AT2220 (N = 6), Cohort 2, Arithmetic mean (SD), read-out: Plasma AT2220 t½ (converted)) of 3.4 h, an AUC(0-t) [5] of 13000 ng·h/mL and an AUC(0-inf) [5] of 13100 ng·h/mL. The Cmax [5] was 1860 ng/mL, the Tmax (100 mg, 100 mg AT2220 (N = 6), Cohort 2, Median (range), read-out: Plasma AT2220 Tmax) was 3 h and the half-life (250 mg, 250 mg AT2220 (N = 6), Cohort 3, Arithmetic mean (SD), read-out: Plasma AT2220 t½ (converted)) was 3.7 h. The AUC(0-t) [6] was 21800 ng·h/mL, the AUC(0-inf) [6] was 22100 ng·h/mL and the Cmax [6] was 3150 ng/mL. The Tmax (250 mg, 250 mg AT2220 (N = 6), Cohort 3, Median (range), read-out: Plasma AT2220 Tmax) was 2 h, the AUC(0-t) [7] was 21800 ng·h/mL and the AUC(0-inf) [7] was 22100 ng·h/mL. The Cmax [7] was 3150 ng/mL, the Tmax (250 mg, Cohort 3, 250 mg AT2220, Geometric Mean, N=6, read-out: Plasma AT2220 Tmax) was 2.3 h and the half-life (250 mg, Cohort 3, 250 mg AT2220, Geometric Mean, N=6, read-out: Plasma AT2220 T½ (converted)) was 3.7 h. It also gave an AUC(0-t) [8] of 22100 ng·h/mL and an AUC(0-inf) [8] of 22400 ng·h/mL.
